The target of this test is T1, human recombinant GST-PAK1-KD protein (Homo sapiens, UniProt Q13153).
T1 construct: residues #249-545 of human PAK1, UniProtKP/Swiss Q13153; His6 (N); made in house; host or cells: Sf9 insect cells, pAcGP67 baculovirus expression vector
Put plainly: GST-PAK1-KD (kinase domain) biochemical assay, microfluidic mobility shift.

Where [1] appears, read: Table II, PAK1 Ki class, read-out: Ki.
Where [2] appears, read: Table I, PAK1 Ki class, read-out: Ki.

Where two headings read alike, the source gives them in different places.

T1 sequence (Q13153 249-545): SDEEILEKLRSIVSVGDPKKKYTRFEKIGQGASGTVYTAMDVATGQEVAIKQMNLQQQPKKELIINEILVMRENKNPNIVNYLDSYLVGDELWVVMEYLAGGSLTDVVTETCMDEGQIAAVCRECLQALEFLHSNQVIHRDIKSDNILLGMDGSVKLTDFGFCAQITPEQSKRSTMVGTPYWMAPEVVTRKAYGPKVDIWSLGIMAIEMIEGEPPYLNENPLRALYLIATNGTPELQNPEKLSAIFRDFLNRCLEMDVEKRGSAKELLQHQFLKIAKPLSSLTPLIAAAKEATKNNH

Consider `Cc1cc(Nc2ccnc(NCc3ccc4[nH]cnc4c3Cl)n2)n[nH]1` [II-46, N^2-((4-Chloro-1H-benzo[d]imidazol-5-yl)methyl)-N^4-(5-methyl-1H-pyrazol-3-yl)pyrimidine-2,4-diamine], for which the Ki (commonly a dissociation constant, usually derived from enzyme kinetics or from competition with a known ligand) under setting [1] lay in the range of 50 to 250 nM.
With `c1cc(CNc2nccc(Nc3cc(C4CC4)[nH]n3)n2)c2cc[nH]c2c1` [I-38, N^2-((1H-Indol-4-yl)methyl)-N^4-(5-cyclopropyl-1H-pyrazol-3-yl)pyrimidine-2,4-diamine], the Ki under setting [2] lay within 50 to 250 nM.
Take `CCc1c(CNc2nccc(Nc3cc(C4CC4)[nH]n3)n2)ccc2[nH]cnc12` [II-7, N^4-(5-Cyclopropyl-1H-pyrazol-3-yl)-N^2-[(4-ethyl-1H-benzimidazol-5-yl)methyl]pyrimidine-2,4-diamine]: under setting [1], the Ki was less than 50 nM.
Regarding `Clc1c(CNc2nccc(Nc3cc(C4CC4)[nH]n3)n2)ccc2[nH]ccc12` [I-20, N^2-((4-chloro-1H-indol-5-yl)methyl)-N^4-(5-cyclopropyl-1H-pyrazol-3-yl)pyrimidine-2,4-diamine], the Ki under setting [2] lay within 50 to 250 nM.
Take `Cc1cc(Nc2ccnc(N[C@@H](C)c3ccc4[nH]cnc4c3)n2)n[nH]1` [I-121, (S)—N^2-(1-(1H-benzo[d]imidazol-5-yl)ethyl)-N^4-(5-methyl-1H-pyrazol-3-yl)pyrimidine-2,4-diamine]: the Ki under setting [2] fell in the range of 250 to 1000 nM.
As for `CCN(Cc1cccc2[nH]ncc12)c1ncc(F)c(Nc2cc(C3CC3)[nH]n2)n1` [II-87, N^2-((1H-indazol-4-yl)methyl)-N^4-(5-cyclopropyl-1H-pyrazol-3-yl)-N^2-ethyl-5-fluoropyrimidine-2,4-diamine], the Ki under setting [1] was less than 50 nM.
In the case of `CO[C@@H](C)CN(Cc1cc(F)cc2[nH]ncc12)c1nccc(Nc2cc(C3CC3)[nH]n2)n1` [II-95, (S)-N^4-(5-cyclopropyl-1H-pyrazol-3-yl)-N^2-((6-fluoro-1H-indazol-4-yl)methyl)-N^2-(2-methoxypropyl)pyrimidine-2,4-diamine], under setting [1], the Ki was less than 50 nM.
For `C[C@H](Nc1nccc(Nc2cc([C@@H]3CC3(F)F)[nH]n2)n1)c1ccc2[nH]cnc2c1` [I-61, N^2—((S)-1-(1H-benzo[d]imidazol-5-yl)ethyl)-N^4-(5-((S)-2,2-difluorocyclopropyl)-1H-pyrazol-3-yl)pyrimidine-2,4-diamine], under setting [2], the Ki is 50 to 250 nM.
With `C[C@@H](c1ccc2[nH]cnc2c1)N(C)c1nccc(Nc2cc(C3CC3)[nH]n2)n1` [I-9, (S)—N^2-(1-(1H-benzo[d]imidazol-5-yl)ethyl)-N^4-(5-cyclopropyl-1H-pyrazol-3-yl)-N^2-methylpyrimidine-2,4-diamine], under setting [2], the Ki is less than 50 nM.
For `FC1(F)CC(c2cc(Nc3ccnc(NCc4cccc5[nH]ccc45)n3)n[nH]2)C1` [I-104, N^2-((1H-indol-4-yl)methyl)-N^4-(5-(3,3-difluorocyclobutyl)-1H-pyrazol-3-yl)pyrimidine-2,4-diamine], the Ki under setting [2] is 50 to 250 nM.
The same measure, in the same setting: for `C[C@@H](Nc1ncc(F)c(Nc2cc(C3CC3)[nH]n2)n1)c1cccc2[nH]ccc12` [I-100, N^4-(5-cyclopropyl-1H-pyrazol-3-yl)-5-fluoro-N^2-[(1R)-1-(1H-indol-4-yl)ethyl]pyrimidine-2,4-diamine] the value was greater than 1000 nM.
With `C[C@H](Nc1nccc(Nc2cc(C3CC3)[nH]n2)n1)c1cc(F)cc2c1cnn2C` [II-40, (S)-N^4-(5-cyclopropyl-1H-pyrazol-3-yl)-N^2-(1-(6-fluoro-1-methyl-1H-indazol-4-yl)ethyl)pyrimidine-2,4-diamine], the Ki under setting [1] lay within 50 to 250 nM.
On to `C[C@H](Nc1nccc(Nc2cc(C3CCCC3)[nH]n2)n1)c1ccc2[nH]cnc2c1` [I-2, (S)—N^2-(1-(1H-benzo[d]imidazol-5-yl)ethyl)-N^4-(5-cyclopentyl-1H-pyrazol-3-yl)pyrimidine-2,4-diamine], for which the Ki under setting [2] was less than 50 nM.
Turning to `Cc1cc2[nH]cnc2cc1[C@H](C)Nc1nccc(Nc2cc(C3CC3)[nH]n2)n1` [II-31, (S)-N^4-(5-Cyclopropyl-1H-pyrazol-3-yl)-N^2-(1-(6-methyl-1H-benzo[d]imidazol-5-yl)ethyl)pyrimidine-2,4-diamine], the Ki under setting [1] is 50 to 250 nM.
On to `Cc1cc(Nc2ccnc(N[C@@H](C)c3ccc4[nH]ccc4c3)n2)n[nH]1` [I-112, (S)—N^2-(1-(1H-indol-5-yl)ethyl)-N^4-(5-methyl-1H-pyrazol-3-yl)pyrimidine-2,4-diamine], for which the Ki under setting [2] fell in the range of 250 to 1000 nM.
Take `C[C@H](Nc1nccc(Nc2cc(C3CCC3)[nH]n2)n1)c1ccc2[nH]cnc2c1` [I-1, (S)—N^2-(1-(1H-benzo[d]imidazol-5-yl)ethyl)-N^4-(5-cyclobutyl-1H-pyrazol-3-yl)pyrimidine-2,4-diamine]: the Ki under setting [2] is less than 50 nM.
As to `c1ccc([C@@H]2C[C@H]2c2cc(Nc3ccnc(NCc4cccc5[nH]ccc45)n3)n[nH]2)cc1` (racemic) [I-57, N^2-((1H-indol-4-yl)methyl)-N^4-(5-((trans)-2-phenylcyclopropyl)-1H-pyrazol-3-yl)pyrimidine-2,4-diamine], under setting [2], the Ki fell in the range of 250 to 1000 nM.
Take `c1cc(Nc2cc(C3CC3)[nH]n2)nc(NCc2ccc3[nH]cnc3c2)n1` [I-13, N^2-((1H-Benzo[d]imidazol-5-yl)methyl)-N^4-(5-cyclopropyl-1H-pyrazol-3-yl)pyrimidine-2,4-diamine]: the Ki was less than 50 nM.
As to `OCCN(Cc1cc(F)cc2[nH]ncc12)c1nccc(Nc2cc(C3CC3)[nH]n2)n1` [II-66, 2-((4-((5-cyclopropyl-1H-pyrazol-3-yl)amino)pyrimidin-2-yl)((6-fluoro-1H-indazol-4-yl)methyl)anino)ethanol], the Ki under setting [1] was less than 50 nM.
For the compound `Fc1cnc(NCc2cccc3[nH]cnc23)nc1Nc1cc(C2CC2)n[nH]1` [I-97, N^2-((3H-benzo[d]imidazol-4-yl)methyl)-N^4-(3-cyclopropyl-1H-pyrazol-5-yl)-5-fluoropyrimidine-2,4-diamine], under setting [2], the Ki was less than 50 nM.
Same read-out and setting: next, `Fc1cc(CNc2ncc(F)c(Nc3cc(C4CC4)[nH]n3)n2)c2cc[nH]c2c1` [I-91, N^4-(5-Cyclopropyl-1H-pyrazol-3-yl)-5-fluoro-N^2-((6-fluoro-1H-indol-4-yl)methyl)pyrimidine-2,4-diamine diformate]: 250 to 1000 nM.
`C[C@H](Nc1nccc(Nc2cc(C3CC3)[nH]n2)n1)c1ccc2[nH]cnc2c1` [I-5, N^2-[(1S)-1-(1H-Benzimidazol-5-yl)ethyl]-N^4-(5-cyclopropyl-1H-pyrazol-3-yl)pyrimidine-2,4-diamine]: the Ki (Ki, Table I, PAK1 Ki class) was less than 50 nM.
For the compound `Cc1cc(Nc2cc(C3CC3)[nH]n2)nc(NCc2cccc3[nH]ccc23)n1` [I-54, N^2-((1H-indol-4-yl)methyl)-N^4-(5-cyclopropyl-1H-pyrazol-3-yl)-6-methylpyrimidine-2,4-diamine], the Ki under setting [2] lay within 50 to 250 nM.
On the same count and under the same terms, next, `OCCN(Cc1ccc2[nH]cnc2c1)c1nccc(Nc2cc(C3CC3)[nH]n2)n1` [I-63, 2-(((1H-benzo[d]imidazol-5-yl)methyl)(4-(5-cyclopropyl-1H-pyrazol-3-ylamino)pyrimidin-2-yl)amino)ethanol]: 50 to 250 nM.
Still for that read-out and setting: next, `c1ccc([C@@H]2C[C@H]2c2cc(Nc3ccnc(NCc4ccc5[nH]cnc5c4)n3)n[nH]2)cc1` (racemic) [I-27, N^2-(1H-Benzimidazol-5-ylmethyl)-N^4-[5-[(trans)-2-phenylcyclopropyl]-1H-pyrazol-3-yl]pyrimidine-2,4-diamine]: 50 to 250 nM.

The values are drawn from patent publication US8637537B2, “Serine/threonine kinase inhibitors” (Genentech, Inc., priority 2011, dated 2014).
